From US20250263436A1, “BROAD-SPECTRUM ANTIVIRAL DRUG FOR ENTEROVIRUS, AND APPLICATION” (WUHAN INSTITUTE OF VIROLOGY, CHINESE ACADEMY OF SCIENCES, priority 2020, published 2025)
“And” between values parts separate entries of the source, which are not always exact repeats. Identical values can stand only once.

What was measured:
EV71 [1] = test: Inhibition of EV71 in RD cells (viral RNA, qRT-PCR); type: cell-based, enterovirus 71 (EV71); conditions: anti-EV71 in RD cells
Method: (§1) (1) Different cells were plated in a 24-well plate.
(§2) (2) When the cells grew to a confluence of 70%-80%, the DMEM medium containing 10% serum was replaced with a DMEM medium containing 2% serum (the DMEM medium containing 2% serum was added in each well at an amount of 0.5 mL), and 5 μL of EV71 virus of 1×10^6 PFU/mL was added to each well.
(§3) (3) After 1 h, different polypeptides (RQ or control TAT) with final concentrations of 0.3125 μM, 0.625 μM, 1.25 μM, 2.5 μM, and 5 μM were added respectively. The group without polypeptide added was used as a control.
(§4) (4) The samples were collected 24 h after the infection of EV71 virus, and RNA was extracted with the total RNA extraction kit.
(§5) (5) The supernatant was discarded, then 350 μL of TRK lysate was added to each well, and the plate was put on a shaker for 5 min.
(§6) (6) 350 μL of 70% ethanol (DEPC) was added to each well, and then the plate was put on a shaker for 5 min.
(§7) (7) The solution in each well was transferred to a RNA extraction column for 1 min of centrifugation at 12000 g.
(§8) (8) The solution obtained in the recovery tube was reloaded on the column again for 1 min of centrifugation at 12000 g.
(§9) (9) RNA washing buffer 1 was added in the column for 30 s of centrifugation at 12000 g.
(§10) (10) RNA washing buffer 2 was added in the column for 1 min of centrifugation at 12000 g.
(§11) (11) Step (10) was repeated.
(§12) (12) The column alone was centrifuged at 12000 g for 2 min to completely remove the residual RNA washing buffer.
(§13) (13) 50 μL of DEPC water was added to the column for 2 min of centrifugation at 12000 g.
(§14) (14) 2 μL of RNA sample was subjected to a fluorescence quantitative experiment using the one step qRT-PCR kit.
(3) After 1 h, different polypeptides (RQ or control TAT) with final concentrations of 0.3125 μM, 0.625 μM, 1.25 μM, 2.5 μM and 5 μM were added respectively. The group without polypeptide added was used as a control.

EV71 [2] = test: Inhibition of EV71 in Vero cells (viral RNA, qRT-PCR); type: cell-based, enterovirus 71 (EV71); conditions: anti-EV71 in Vero cells
Method: as §1, §2, §3, §4, §5, §6, §7, §8, §9, §10, §11, §12, §13, §14
(1) Vero E6 cells were plated in a 24-well plate.
(3) After 1 h, different polypeptides (LQ or SQ) with final concentrations of 0.3125 μM, 0.625 μM, 1.25 μM, 2.5 μM, and 5 μM were added respectively. The group without polypeptide added was used as a control.

CVA16 = test: Inhibition of CVA16 in RD cells (viral RNA, qRT-PCR); type: cell-based; conditions: anti-CVA16 in RD cells
Method: (§15) (1) RD cells were plated in a 24-well plate.
(2) When the cells grew to a confluence of 70%-80%, the DMEM medium containing 10% serum was replaced with a DMEM medium containing 2% serum (the DMEM medium containing 2% serum was added in each well at an amount of 0.5 mL), and 5 μL of CVA16 virus of 1×10^6 PFU/mL was added to each well.
(3) After 1 h, different polypeptides with final concentrations of 0.3125 μM, 0.625 μM, 1.25 μM, 2.5 μM, and 5 μM were added respectively. The group without polypeptide added was used as a control.
(4) The samples were collected 24 h after the infection of CVA16 virus, and RNA was extracted with the total RNA extraction kit.
as §5, §6, §7, §8
(§16) (9) RNA washing buffer 1 was added in the column for 30 s of centrifugation at 12000 g. […]
as §14

[3] = Toxicity assay in 293T cells (CCK-8); type: cell-based; conditions: human, 293T cells, read-out: Viability of Huh7 cell (%)
Method: (§17) (1) Different cells were plated in a 96-well plate at 100 μL per well.
(§18) (2) When the cells grew to a confluence of 70%-80%, the DMEM medium containing 10% serum was replaced with a DMEM medium containing 2% serum, and a certain concentration gradient of polypeptide RQ was added, so that the final concentrations of the polypeptide in the wells were 0.073242 μM, 0.146484 μM, 0.292969 μM, 0.585938 μM, 1.171875 μM, 2.34375 μM, 4.6875 μM, 9.375 μM, 18.75 μM, 37.5 μM, 75 μM, 150 μM, and 300 μM, respectively.
(§19) (3) The samples were collected 24 h after the addition of the polypeptide, and then 10 μL of live cell detection reagent CCK-8 was added to each well and mixed well.
(§20) (4) The plate was placed at 37° C. for 2 h.
(§21) (5) The absorbance value at OD450 was detected by a microplate reader.

293T cells = test: Toxicity assay in 293T cells (CCK-8); type: cell-based; conditions: 24 h
Method: as §17, §18, §19, §20, §21

Echo 11 = test: Inhibition of Echo 11 in RD cells (viral RNA, qRT-PCR); type: cell-based; conditions: inhibiting Echo 11 in RD cells
Method: as §15
(2) When the cells grew to a confluence of 70%-80%, the DMEM medium containing 10% serum was replaced with a DMEM medium containing 2% serum (the DMEM medium containing 2% serum was added in each well at an amount of 0.5 mL), and 5 μL of Echo 11 virus of 1×10^6 PFU/mL was added to each well.
(3) After 1 h, the polypeptides with final concentrations of 0.3125 μM, 0.625 μM, 1.25 μM, 2.5 μM, and 5 μM were added respectively. The group without polypeptide added was used as a control.
(4) The samples were collected 24 h after the infection of Echo 11 virus, and RNA was extracted with the total RNA extraction kit.
as §5, §6, §7, §8, §16
(14) 2 μL of RNA sample was subjected to a fluorescence quantitative experiment using the one step qRT-PCR kit. […]

[4] = Table 15 (third cell line of Example 9), RQ 0.073242 μM

SMILES: CC[C@H](C)[C@H](NC(=O)[C@H](C)NC(=O)[C@H](CO)NC(=O)[C@H](CCCNC(=N)N)NC(=O)[C@H](CC(N)=O)NC(=O)[C@H](CC(N)=O)NC(=O)[C@H](Cc1ccc(O)cc1)NC(=O)[C@H](CCC(=O)O)NC(=O)[C@H](CCCNC(=N)N)NC(=O)CNC(=O)[C@H](CO)NC(=O)CNC(=O)[C@H](CCCNC(=N)N)NC(=O)[C@H](CCCNC(=N)N)NC(=O)[C@H](CCCNC(=N)N)NC(=O)[C@H](CCC(N)=O)NC(=O)[C@H](CCCNC(=N)N)NC(=O)[C@H](CCCNC(=N)N)NC(=O)[C@H](CCCCN)NC(=O)[C@H](CCCCN)NC(=O)[C@H](CCCNC(=N)N)NC(=O)CNC(=O)[C@@H](N)Cc1ccc(O)cc1)C(=O)NCC(=O)N[C@@H](CC(N)=O)C(=O)N[C@H](C(=O)N[C@H](C(=O)N[C@@H](CCC(=O)O)C(=O)N[C@@H](C)C(=O)N[C@@H](CC(C)C)C(=O)N[C@@H](Cc1ccccc1)C(=O)N[C@@H](CCC(N)=O)C(=O)O)[C@@H](C)CC)[C@@H](C)O [RQ]
- IC50 (EV71 [1]): 1.35 µM
- IC50 (EV71 [2]): 0.66 µM
- IC50 (CVA16): 2.16 µM
- Viability of 293T cells at 24 h, 0.073242 µM [3, 4]: 98.4%
- Viability of 293T cells at 24 h, 0.146484 µM ([3]; Table 15, RQ 0.146484 μM): 101%
- Viability of 293T cells at 24 h, 0.292969 µM ([3]; Table 15, RQ 0.292969 μM): 101%
- Viability of 293T cells at 24 h, 0.585938 µM ([3]; Table 15, RQ 0.585938 μM): 100%
- Viability of 293T cells at 24 h, 1.17188 µM ([3]; Table 15, RQ 1.171875 μM): 99.7%
- Viability of 293T cells at 24 h, 2.34375 µM ([3]; Table 15, RQ 2.34375 μM): 99.1%
- Viability of 293T cells at 24 h, 4.6875 µM ([3]; Table 15, RQ 4.6875 μM): 98.6%
- Viability of 293T cells at 24 h, 9.375 µM ([3]; Table 15, RQ 9.375 μM): 99.7%
- Viability of 293T cells at 24 h, 18.75 µM ([3]; Table 15, RQ 18.75 μM): 100%
- Viability of 293T cells at 24 h, 37.5 µM ([3]; Table 15, RQ 37.5 μM): 102%
- Viability of 293T cells at 24 h, 75 µM ([3]; Table 15, RQ 75 μM): 102%
- Viability of 293T cells at 24 h, 150 µM ([3]; Table 15, RQ 150 μM): 66.6%
- Viability of 293T cells (293T cells; [4]): 100.4267% and 97.87%
- Viability of 293T cells (293T cells; Table 15, RQ 0.146484 μM): 100.8922% and 100.9503%
- Viability of 293T cells (293T cells; Table 15, RQ 0.292969 μM): 102.4631% and 100.8922%
- Viability of 293T cells (293T cells; Table 15, RQ 0.585938 μM): 102.8123% and 101.6486%
- Viability of 293T cells (293T cells; Table 15, RQ 1.171875 μM): 115.4383% and 103.5687%
- Viability of 293T cells (293T cells; Table 15, RQ 2.34375 μM): 100.3685% and 102.8704%
- Viability of 293T cells (293T cells; Table 15, RQ 4.6875 μM): 99.96% and 100.0776%
- Viability of 293T cells (293T cells; Table 15, RQ 9.375 μM): 99.96% and 94.03%
- Viability of 293T cells (293T cells; Table 15, RQ 18.75 μM): 99.9%
- Viability of 293T cells (293T cells; Table 15, RQ 37.5 μM): 101.1249% and 102.9286%
- Viability of 293T cells (293T cells; Table 15, RQ 75 μM): 98.97% and 99.5%
- Viability of 293T cells (293T cells; Table 15, RQ 150 μM): 63.83% and 64.4104%
- IC50 (Echo 11): 0.37 µM
